Data taken from the NIST ThermoML archive (doi:10.1016/j.fluid.2008.02.008).
± gives the expanded uncertainty stated by the source.

What was measured:
[1] = 298.15 K, 101.33 kPa, Liquid; for mass density: Pycnometric method; for speed of sound: Sing-around technique in a fixed-path interferometer
[2] = refractive index (Na D-line) (dimensionless); conditions: 298.15 K; 101.33 kPa; Liquid; Standard Abbe refractometry

SMILES | mass density [1] | speed of sound [1] | refractive index [2]
CC(C)CC(C)(C)C [2,2,4-trimethylpentane] | 687.817 ± 0.62 kg/m3 | 1082.6 ± 1 m/s | 1.38917 ± 0.00073
CCC(C)(C)C [2,2-dimethylbutane] | 644.43 ± 0.61 kg/m3 | 999.69 ± 1.3 m/s | 1.36608 ± 0.00075
CC(C)C(C)C [2,3-dimethylbutane] | 658.562 ± 1.3 kg/m3 | 1047.1 ± 3.1 m/s | 1.37275 ± 0.00094
CCCC(C)C [2-methylpentane] | 648.614 ± 0.62 kg/m3 | 1082.6 ± 1.3 m/s | 1.36893 ± 0.00075
CCC(C)CC [3-methylpentane] | 659.806 ± 0.63 kg/m3 | 1072.1 ± 1.3 m/s | 1.37399 ± 0.00075
O=C1CCCN1C1CCCCC1 [N-cyclohexylpyrrolidinone] | 1025.56 ± 1.7 kg/m3 | 1555.7 ± 2.3 m/s | 1.4975 ± 0.00082
CN1CCCC1=O [N-methylpyrrolidone] | 1027.88 ± 1.1 kg/m3 | 1545 ± 1.5 m/s | 1.46876 ± 0.00075
C1CCCCC1 [cyclohexane] | 773.948 ± 0.69 kg/m3 | 1254.9 ± 0.97 m/s | 1.42378 ± 0.00072
C1CCCCCCC1 [cyclooctane] | 830.967 ± 0.82 kg/m3 | 1387.8 ± 1.4 m/s | 1.45624 ± 0.00075
CCCCCCCCCC [decane] | 726.176 ± 0.7 kg/m3 | 1232.5 ± 1.4 m/s | 1.4099 ± 0.00075
CCCCCC [hexane] | 654.961 ± 0.62 kg/m3 | 1077.6 ± 1.3 m/s | 1.37237 ± 0.00075
CCCCCCCC [octane] | 698.638 ± 0.63 kg/m3 | 1170.4 ± 1.1 m/s | 1.39538 ± 0.00073
O [water] |  |  | 1.3325 ± 0.00075
